From patent US7867749B2, “Nematode phosphoethanolamine N-methyltransferase-like sequences” (priority 2006, dated 2011)
Where two headings read alike, the source gives them in different places.

How the values were obtained:
[1] = tested on: Cephalobus sp.; test: Nematicidal activity against other nematodes; assay type: in vivo
[2] = tested on: C. elegans; test: Nematicidal activity of ethanolamine-like compounds against C. elegans; assay type: in vivo, Caenorhabditis elegans; conditions: P0 L4 larva; for F1 PHENOTYPE: 23° C.; for nematicidal activity against C. elegans: various concentrations
[3] = tested on: M. javanica; test: Nematicidal activity against plant parasites, J2 larvae soak; assay type: in vivo, Meloidogyne javanica; conditions: 15 mM; J2 larvae soaked 48 hours
Experimental: (§1) The ethanolamine-like compounds mentioned above are also nematicidal against the plant parasites Meloidogyne incongnita and Meloidogyne javanica. Between 25 and 50 J2 stage larvae were soaked in the compounds for 48 hours at the indicated concentrations. After the treatment, the larvae were moved to an agar plate containing NGM. Worms that crawl away from the application spot are scored as alive while those that remain at the application spot are scored as dead. The three compounds that were nematicidal against C. elegans were also nematicidal against M. incognita and M. javanica

[4] = tested on: M. incognita; assay type: in vivo, Meloidogyne incongnita; conditions: J2 larvae soaked 48 hours
Experimental: as §1

[5] = tested on: A. ellesmerensis; test: Nematicidal activity against other nematodes; assay type: in vivo, Acrobiloides ellesmerensis
[6] = target: T1, C. elegans PEAMT2 (DIV3202) (Caenorhabditis elegans, UniProt Q22993); test: Km determination, radiochemical PEAMT assay; assay type: biochemical; conditions: 118 nM DIV3202H+
T1 sequence (Q22993 1-437): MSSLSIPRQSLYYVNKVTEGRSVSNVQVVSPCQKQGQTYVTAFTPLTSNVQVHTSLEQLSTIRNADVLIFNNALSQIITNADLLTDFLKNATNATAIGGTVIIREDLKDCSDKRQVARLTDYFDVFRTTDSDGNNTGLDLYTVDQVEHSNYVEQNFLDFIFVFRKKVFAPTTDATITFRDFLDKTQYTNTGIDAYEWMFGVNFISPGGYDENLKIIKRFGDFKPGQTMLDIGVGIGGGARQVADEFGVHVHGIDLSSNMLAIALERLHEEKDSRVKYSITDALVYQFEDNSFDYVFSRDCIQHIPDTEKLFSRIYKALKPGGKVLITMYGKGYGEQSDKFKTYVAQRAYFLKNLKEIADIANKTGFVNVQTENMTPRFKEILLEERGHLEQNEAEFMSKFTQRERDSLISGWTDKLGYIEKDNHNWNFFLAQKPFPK

[7] = tested on: C. elegans; test: Chemical rescue of the PEAMT1 RNAi-generated phenotype (feeding); assay type: in vivo, Caenorhabditis elegans; conditions: for rescue of PEAMT1 mutants (RNAi-generated): 5 mM; for suppression of PEAMT1 larval lethal RNAi phenotype: chemical complementation, concentration not given
[8] = tested on: C. elegans; test: Chemical rescue of the PEAMT2 RNAi-generated phenotype (feeding); assay type: in vivo, Caenorhabditis elegans; conditions: for rescue of PEAMT2 RNAi phenotype: chemical complementation, singly or in combination, concentration not given
[9] = tested on: everted hamster jejunal and ileal segments; conditions: cited from earlier work
[10] = tested on: isolated intestinal epithelial cells; conditions: cited from earlier work
[11] = target: T2, C. elegans PEAMT1 (DIV3441) (Caenorhabditis elegans, UniProt Q23552); test: Km determination, radiochemical PEAMT assay; assay type: biochemical
T2 construct: HIS tag (pET28a) (N); made in house; host or cells: bacterial culture, IPTG-induced pET28a
T2 sequence (Q23552 1-475): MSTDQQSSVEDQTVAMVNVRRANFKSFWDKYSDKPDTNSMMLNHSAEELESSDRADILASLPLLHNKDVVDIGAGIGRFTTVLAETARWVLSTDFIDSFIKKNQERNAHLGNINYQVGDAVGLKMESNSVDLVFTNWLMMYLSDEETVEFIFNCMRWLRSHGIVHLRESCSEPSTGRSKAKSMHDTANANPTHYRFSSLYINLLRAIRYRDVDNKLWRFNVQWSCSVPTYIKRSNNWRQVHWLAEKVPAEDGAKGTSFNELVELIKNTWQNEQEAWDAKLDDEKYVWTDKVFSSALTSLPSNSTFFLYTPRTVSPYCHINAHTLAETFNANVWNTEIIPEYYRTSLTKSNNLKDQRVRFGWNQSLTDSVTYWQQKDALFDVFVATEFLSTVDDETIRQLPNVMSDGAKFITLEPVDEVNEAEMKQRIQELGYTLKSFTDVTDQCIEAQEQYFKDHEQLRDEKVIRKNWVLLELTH

[12] = P0 L4, 5 or 10 mM in plate media

Q: For `CC(C)(C)NCCO` [2-(tert-butylamino)ethanol], which “F1 PHENOTYPE” value ([1]; 10 mM) is on record?
A: Its value is “L1/L2 arrest/lethality”.

Q: And the “F1 PHENOTYPE” value ([2]; 10 mM)?
A: Its value is “L1/L2 arrest/lethality”.

Q: And the “nematicidal activity against C. elegans” value [2]?
A: Its value is “showed nematicidal activity”.

Q: What about the “% DEAD WORMS” value [3] of the same molecule?
A: The value was 50%.

Q: What about the “% DEAD WORMS” value ([4]; 5 mM) of the same molecule?
A: Its value is 50%.

Q: What about the “F1 PHENOTYPE” value ([5]; 10 mM) of the same molecule?
A: Its value is “L1/L2 arrest/lethality”.

Q: With `NCC(O)c1ccccc1` (stereo not drawn) [2-amino-1-phenylethanol] as the molecule, how does the “F1 PHENOTYPE” value ([2]; 25 mM) read?
A: Its value is “Wild-type development”.

Q: What about the “nematicidal activity against C. elegans” value [2] of the same molecule?
A: Its value is “no nematicidal effect”.

Q: For `N[C@@H](CO)Cc1ccccc1` [D-phenylalaninol], which “F1 PHENOTYPE” value ([1]; 12.5 mM) is on record?
A: Its value is “L1/L2 arrest/lethality”.

Q: And the “F1 PHENOTYPE” value ([2]; 10 mM)?
A: Its value is “L1/L2 arrest/lethality”.

Q: What about the “nematicidal activity against C. elegans” value [2] of the same molecule?
A: Its value is “showed nematicidal activity”.

Q: And the “% DEAD WORMS” value ([4]; 25 mM)?
A: The value was 100%.

Q: And the “F1 PHENOTYPE” value ([5]; 12.5 mM)?
A: Its value is “L1/L2 arrest/lethality”.

Q: For `CN(C)CCO` [DME, dimethylethanolamine], which Km ([6]; 1 mM SAM, 0.05-10 mM DME, read-out: Km of DME for DIV3202H+ (PEAMT2H+; intact HIS tag)) is on record?
A: The Km was 1.39 ± 0.26 µM.

Q: And the “rescue of PEAMT1 mutants (RNAi-generated)” value [7]?
A: The value was “rescued”.

Q: What about the “rescue of sterility associated with PEAMT1 RNAi” value ([7]; Five mM) of the same molecule?
A: Its value is “rescues the sterility”.

Q: And the “F1 phenotype, PEAMT1 dsRNA” value ([7]; P0 Dauer, 10 mM in plate media)?
A: The value was “Fertile adults”.

Q: What about the “F1 phenotype, PEAMT1 dsRNA” value ([7]; P0 L1, 10 mM in plate media) of the same molecule?
A: The value was “Fertile adults”.

Q: And the “F1 phenotype, PEAMT1 dsRNA” value [7, 12]?
A: Its value is “Fertile adults”.

Q: What about the “F1 phenotype, PEAMT2 dsRNA” value ([8]; P0 Dauer, 10 mM in plate media) of the same molecule?
A: The value was “Sterility”.

Q: And the “F1 phenotype, PEAMT2 dsRNA” value ([8]; P0 L1, 10 mM in plate media)?
A: The value was “Sterility”.

Q: And the “F1 phenotype, PEAMT2 dsRNA” value [8, 12]?
A: The value was “L1/L2 arrest/lethality”.

Q: What about the “rescue of PEAMT2 RNAi phenotype” value [8] of the same molecule?
A: The value was “not”.

Q: What does the source list for `CNCCO` [MME, monomethylethanolamine]?
A: Km ([6]; 1 mM SAM, 0.15-20 mM MME, read-out: Km of MME for DIV3202H+ (PEAMT2H+; intact HIS tag)): 2.1 ± 0.97 µM; rescue of PEAMT1 mutants (RNAi-generated) [7]: rescued; F1 phenotype, PEAMT1 dsRNA [7, 12]: Fertile adults; suppression of PEAMT1 larval lethal RNAi phenotype [7]: suppressed; F1 phenotype, PEAMT2 dsRNA [8, 12]: L1/L2 arrest/lethality; rescue of PEAMT2 RNAi phenotype [8]: not

Q: Which “F1 PHENOTYPE” value ([2]; 10 mM) does the source give for `OCCNc1ccccc1` [N-(2-hydroxyethyl)aniline] here?
A: Its value is “L1/L2 arrest/lethality”.

Q: And the “nematicidal activity against C. elegans” value [2]?
A: Its value is “showed nematicidal activity”.

Q: For `CCCCCC[C@@H](O)C/C=C\CCCCCCCC(=O)O` [Ricinoleic acid], which “effect on water and electrolyte absorption” value [9] is on record?
A: The value was “inhibitory effect”.

Q: What about the cytotoxicity [10] of the same molecule?
A: Its cytotoxicity is “cytotoxic”.

Q: With `C[S+](CC[C@H](N)C(=O)O)C[C@H]1O[C@@H](n2cnc3c(N)ncnc32)[C@H](O)[C@@H]1O` (stereo partly drawn) [S-adenosyl-L-methionine] as the molecule, how does the Km ([6]; 10 mM DME, 0.004-3 mM SAM, read-out: Km of S-adenosyl-L-methionine for DIV3202H+ (PEAMT2H+; intact HIS tag)) read?
A: Its Km is 167 ± 34.6 µM.

Q: What about the Km ([6]; 30 mM MME, 0.004-3 mM SAM, read-out: Km of S-adenosyl-L-methionine for DIV3202H+ (PEAMT2H+; intact HIS tag)) of the same molecule?
A: The Km was 163 ± 42.4 µM.

Q: And the Km ([11]; read-out: Km of S-adenosyl-L-methionine for DIV3441H+ (PEAMT1H+; intact HIS tag))?
A: Its Km is 62.5 ± 9.68 µM.

Q: What about the Km ([11]; read-out: Km of S-adenosyl-L-methionine for DIV3441H− (PEAMT1H−; cleaved HIS tag)) of the same molecule?
A: Its Km is 146 ± 31.1 µM.

Q: What does the source list for `NCCO` [ethanolamine (EA), ethanolamine]?
A: F1 phenotype, PEAMT1 dsRNA ([7]; P0 L4, 10 mM in plate media): L1/L2 arrest/lethality; suppression of PEAMT1 larval lethal RNAi phenotype [7]: not; F1 phenotype, PEAMT2 dsRNA ([8]; P0 L4, 10 mM in plate media): L1/L2 arrest/lethality; rescue of PEAMT2 RNAi phenotype [8]: not

Q: With `CCCCCC[C@@H](O)C/C=C\CCCCCCCC(=O)OC` [methyl ester of ricinoleic acid] as the molecule, how does the “effect on water and electrolyte absorption” value [9] read?
A: The value was “ineffective”.
